Laboratory results from PubChem BioAssay AID330 (DTP/NCI, 2004).
Where “and” joins values, the source holds several entries; their conditions need not be identical. Equal entries are not always repeated. Toxic doses and inconclusive results are not listed.

System: P388 leukemia ip, CD2F1 mice, survival T/C
Assay: NCI In Vivo Anticancer Drug Screen. Data for tumor model P388 Leukemia (intraperitoneal) in CD2F1 (CDF1) mice
Settings: endpoint: median survival time, higher = longer survival
Summary of the method: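 Mice carrying the transplanted tumor received test compound or vehicle. Survival was recorded in each group, and the value is the treated-group measurement divided by that of the vehicle-treated control group.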

[1] = dose: 6.25 mg/kg/injection, schedule: Q01DX005 (ip), vehicle: Klucel (hydroxypropylcellulose) (HPC)
[2] = dose: 12.5 mg/kg/injection, schedule: Q01DX005 (ip), vehicle: Klucel (hydroxypropylcellulose) (HPC)
[3] = dose: 25.0 mg/kg/injection, schedule: Q01DX005 (ip), vehicle: Klucel (hydroxypropylcellulose) (HPC)
[4] = dose: 50.0 mg/kg/injection, schedule: Q01DX005 (ip), vehicle: Klucel (hydroxypropylcellulose) (HPC)
[5] = dose: 100.0 mg/kg/injection, schedule: Q01DX009 (ip), vehicle: saline with Tween-80
[6] = dose: 100.0 mg/kg/injection, schedule: Q04DX003 (ip), vehicle: saline with Tween-80
[7] = dose: 200.0 mg/kg/injection, schedule: Q01DX009 (ip), vehicle: saline with Tween-80
[8] = dose: 200.0 mg/kg/injection, schedule: Q04DX003 (ip), vehicle: saline with Tween-80
[9] = dose: 400.0 mg/kg/injection, schedule: Q04DX003 (ip), vehicle: saline with Tween-80
[10] = dose: 60.0 mg/kg/injection, schedule: Q01DX005 (ip), vehicle: saline with Tween-80
[11] = dose: 120.0 mg/kg/injection, schedule: Q01DX005 (ip), vehicle: saline with Tween-80
[12] = dose: 240.0 mg/kg/injection, schedule: Q01DX005 (ip), vehicle: saline with Tween-80
[13] = dose: 12.5 mg/kg/injection, schedule: Q01DX005 (ip), vehicle: saline with Tween-80
[14] = dose: 25.0 mg/kg/injection, schedule: Q01DX005 (ip), vehicle: saline with Tween-80
[15] = dose: 50.0 mg/kg/injection, schedule: Q01DX005 (ip), vehicle: saline with Tween-80
[16] = dose: 100.0 mg/kg/injection, schedule: Q01DX005 (ip), vehicle: Klucel (hydroxypropylcellulose) (HPC)
[17] = dose: 50.0 mg/kg/injection, schedule: Q01DX009 (ip), vehicle: saline with Tween-80

Structure (SMILES): [CH3][Sn]([CH3])([n]1cnc(N)nc1=O)[n]1cnc(N)nc1=O
- T/C [1]: 108 % of control
- T/C [2]: 120 % of control and 90 % of control
- T/C [3]: 112 % of control and 113 % of control
- T/C [4]: 105 % of control and 118 % of control

Structure (SMILES): CN1C(N)=NC(c2ccccc2)=CC1(C)c1ccccc1 (stereo not given)
- T/C [1]: 101 % of control
- T/C [2]: 99 % of control
- T/C [3]: 108 % of control

Structure (SMILES): CCN(CC)c1cc(=O)n2ccccc2n1
- T/C (dose: 60.0 mg/kg/injection, schedule: Q01DX005 (ip), vehicle: Klucel (hydroxypropylcellulose) (HPC)): 96 % of control
- T/C (dose: 120.0 mg/kg/injection, schedule: Q01DX005 (ip), vehicle: Klucel (hydroxypropylcellulose) (HPC)): 100 % of control
- T/C (dose: 240.0 mg/kg/injection, schedule: Q01DX005 (ip), vehicle: Klucel (hydroxypropylcellulose) (HPC)): 103 % of control

Structure (SMILES): Clc1ccc(-c2nc3ccccc3nc2-c2ccc(Cl)cc2)cc1
- T/C (dose: 50.0 mg/kg/injection, schedule: Q01DX009 (ip), vehicle: Klucel (hydroxypropylcellulose) (HPC)): 101 % of control
- T/C (dose: 100.0 mg/kg/injection, schedule: Q01DX009 (ip), vehicle: Klucel (hydroxypropylcellulose) (HPC)): 111 % of control
- T/C (dose: 200.0 mg/kg/injection, schedule: Q01DX009 (ip), vehicle: Klucel (hydroxypropylcellulose) (HPC)): 106 % of control

Structure (SMILES): N#C[C@H]1C[C@@H](c2ccccc2)N(c2ccccc2)O1
- T/C (dose: 50.0 mg/kg/injection, schedule: Q01DX005 (ip), vehicle: saline + Tween-80 + alcohol): 98 % of control
- T/C (dose: 100.0 mg/kg/injection, schedule: Q01DX005 (ip), vehicle: saline + Tween-80 + alcohol): 100 % of control
- T/C (dose: 200.0 mg/kg/injection, schedule: Q01DX005 (ip), vehicle: saline + Tween-80 + alcohol): 100 % of control

Structure (SMILES): COC1=CC(=O)C(CO)=CC1=O
- T/C (dose: 3.12 mg/kg/injection, schedule: Q01DX009 (ip), vehicle: saline): 104 % of control
- T/C (dose: 6.25 mg/kg/injection, schedule: Q01DX009 (ip), vehicle: saline): 103 % of control and 104 % of control
- T/C (dose: 12.5 mg/kg/injection, schedule: Q01DX009 (ip), vehicle: saline): 104 % of control and 91 % of control

Structure (SMILES): CCCn1c(=S)[nH]c2ccccc2c1=O
- T/C [5]: 95 % of control
- T/C [6]: 100 % of control
- T/C [7]: 90 % of control
- T/C [8]: 91 % of control
- T/C (dose: 400.0 mg/kg/injection, schedule: Q01DX009 (ip), vehicle: saline with Tween-80): 100 % of control
- T/C [9]: 91 % of control

Structure (SMILES): O=C(O[Si](Cc1ccccc1)(Cc1ccccc1)Cc1ccccc1)N(CCCl)CCCl
- T/C (dose: 12.5 mg/kg/injection, schedule: Q04DX002 (ip), vehicle: saline with Tween-80): 111 % of control
- T/C (dose: 25.0 mg/kg/injection, schedule: Q04DX002 (ip), vehicle: saline with Tween-80): 120 % of control
- T/C (dose: 25.0 mg/kg/injection, schedule: Q04DX003 (ip), vehicle: saline): 154 % of control
- T/C (dose: 50.0 mg/kg/injection, schedule: Q04DX002 (ip), vehicle: saline with Tween-80): 159 % of control
- T/C (dose: 50.0 mg/kg/injection, schedule: Q04DX003 (ip), vehicle: saline): 214 % of control
- T/C (dose: 100.0 mg/kg/injection, schedule: Q04DX002 (ip), vehicle: saline with Tween-80): 180 % of control

Structure (SMILES): C=C1C[C@H](O)[C@H]2C(C[Se]c3ccccc3)C(=O)O[C@@H]2[C@H]2[C@H](C)C(O)C[C@@H]12 (stereo not given in full)
- T/C [10]: 91 % of control
- T/C [11]: 95 % of control
- T/C [12]: 98 % of control

Structure (SMILES): CCCCCCCCCCCCOC(=O)OCCCCCCCCCCCC
- T/C [6]: 100 % of control
- T/C [8]: 100 % of control
- T/C [9]: 100 % of control

Structure (SMILES): C=CCc1ccc(OCCN(CC)CC)c(OC)c1
- T/C [13]: 117 % of control
- T/C [14]: 113 % of control
- T/C [15]: 98 % of control

Structure (SMILES): CCOP(=O)(O)C1CCCC(C)[N-]1.CCOP(=O)(O)C1CCCC(C)[N-]1.[Ni+2] (stereo not given)
- T/C (dose: 12.5 mg/kg/injection, schedule: Q04DX003 (ip), vehicle: Klucel (hydroxypropylcellulose) (HPC)): 99 % of control
- T/C (dose: 25.0 mg/kg/injection, schedule: Q04DX003 (ip), vehicle: Klucel (hydroxypropylcellulose) (HPC)): 107 % of control
- T/C (dose: 50.0 mg/kg/injection, schedule: Q04DX003 (ip), vehicle: Klucel (hydroxypropylcellulose) (HPC)): 107 % of control

Structure (SMILES): CC(C)CC(NCc1ccccc1)C(=O)O (stereo not given)
- T/C [15]: 95 % of control
- T/C (dose: 100.0 mg/kg/injection, schedule: Q01DX005 (ip), vehicle: saline with Tween-80): 100 % of control
- T/C (dose: 200.0 mg/kg/injection, schedule: Q01DX005 (ip), vehicle: saline with Tween-80): 95 % of control

Structure (SMILES): O=C(/C=C/c1ccccc1)Oc1ccccc1[N+](=O)[O-]
- T/C (dose: 100.0 mg/kg/injection, schedule: Q01DX001 (ip), vehicle: Klucel (hydroxypropylcellulose) (HPC)): 92 % of control
- T/C (dose: 200.0 mg/kg/injection, schedule: Q01DX001 (ip), vehicle: Klucel (hydroxypropylcellulose) (HPC)): 93 % of control
- T/C (dose: 400.0 mg/kg/injection, schedule: Q01DX001 (ip), vehicle: Klucel (hydroxypropylcellulose) (HPC)): 92 % of control

Structure (SMILES): Cc1oc2ccccc2c(=O)c1Cn1nnc2ccccc21
- T/C [10]: 103 % of control
- T/C [11]: 103 % of control
- T/C [12]: 94 % of control

Structure (SMILES): CCOC(=O)C1=C(c2ccccc2)OC(N)=C(C#N)C1c1ccc(C)cc1 (stereo not given)
- T/C [4]: 113 % of control
- T/C [16]: 101 % of control
- T/C (dose: 200.0 mg/kg/injection, schedule: Q01DX005 (ip), vehicle: Klucel (hydroxypropylcellulose) (HPC)): 103 % of control

Structure (SMILES): Oc1ccc2c(c1O)/C(=C/C=NCC1(O)OCC(O)C(O)C1O)C=N2 (stereo not given)
- T/C (dose: 60.0 mg/kg/injection, schedule: Q01DX005 (ip), vehicle: saline): 101 % of control
- T/C (dose: 120.0 mg/kg/injection, schedule: Q01DX005 (ip), vehicle: saline): 98 % of control
- T/C (dose: 240.0 mg/kg/injection, schedule: Q01DX005 (ip), vehicle: saline): 101 % of control

Structure (SMILES): CCNCc1nc2sc3c(c2c(=O)[nH]1)CCCC3
- T/C [17]: 105 % of control
- T/C [5]: 94 % of control
- T/C [7]: 99 % of control

Structure (SMILES): O=C1SC(Nc2cccc([N+](=O)[O-])c2)/C(=N\N=C2/C(Nc3cccc([N+](=O)[O-])c3)SC(=O)N2Cc2ccccc2)N1Cc1ccccc1 (stereo not given)
- T/C [4]: 92 % of control
- T/C [16]: 87 % of control

Structure (SMILES): CSCc1cc([N+](=O)[O-])ccc1N
- T/C (dose: 100.0 mg/kg/injection, schedule: Q01DX001 (ip), vehicle: saline with Tween-80): 91 % of control
- T/C (dose: 200.0 mg/kg/injection, schedule: Q01DX001 (ip), vehicle: saline with Tween-80): 98 % of control

Structure (SMILES): COc1ccc(N2C(N)=NC(N)=NC2(C)C)cc1
- T/C (dose: 6.25 mg/kg/injection, schedule: Q01DX005 (ip), vehicle: saline with Tween-80): 93 % of control
- T/C [13]: 102 % of control
- T/C [14]: 107 % of control

Structure (SMILES): Nc1nc(Sc2ccccn2)ccc1[N+](=O)[O-]
- T/C [17]: 91 % of control
- T/C [5]: 91 % of control
- T/C [7]: 102 % of control

Structure (SMILES): CCCCCn1cnc2c(=S)nc[nH]c21
- T/C [6]: 104 % of control
- T/C [8]: 100 % of control
- T/C [9]: 90 % of control

Structure (SMILES): COc1ccccc1Cc1c(OC)cc(OC)c(C(=O)CCc2ccccc2)c1O
- T/C (dose: 3.2 mg/kg/injection, schedule: Q01DX009 (ip), vehicle: other): 100 % of control
- T/C (dose: 4.3 mg/kg/injection, schedule: Q01DX009 (ip), vehicle: other): 110 % of control
- T/C (dose: 6.4 mg/kg/injection, schedule: Q01DX009 (ip), vehicle: other): 100 % of control and 105 % of control
- T/C (dose: 9.6 mg/kg/injection, schedule: Q01DX009 (ip), vehicle: other): 114 % of control and 97 % of control
- T/C (dose: 14.0 mg/kg/injection, schedule: Q01DX009 (ip), vehicle: other): 89 % of control
- T/C (dose: 28.0 mg/kg/injection, schedule: Q01DX009 (ip), vehicle: other): 91 % of control
